Here are results for 41 molecules from ChEMBL document CHEMBL3734751, “Discovery of novel, potent and low-toxicity angiotensin II receptor type 1 (AT1) blockers: Design, synthesis and biological evaluation of 6-substituted aminocarbonyl benzimidazoles with a chiral center” (Eur J Med Chem, 2015).

Molecules are shown by their SMILES. Residue numbers refer to the chain shown, from its start. Calls of active or inactive are those of the source. The rule behind the calls is not given here.

The target in data set [1] is T1, Type-1 angiotensin II receptor (Oryctolagus cuniculus, UniProt P34976).
T1 sequence (P34976 whole entry): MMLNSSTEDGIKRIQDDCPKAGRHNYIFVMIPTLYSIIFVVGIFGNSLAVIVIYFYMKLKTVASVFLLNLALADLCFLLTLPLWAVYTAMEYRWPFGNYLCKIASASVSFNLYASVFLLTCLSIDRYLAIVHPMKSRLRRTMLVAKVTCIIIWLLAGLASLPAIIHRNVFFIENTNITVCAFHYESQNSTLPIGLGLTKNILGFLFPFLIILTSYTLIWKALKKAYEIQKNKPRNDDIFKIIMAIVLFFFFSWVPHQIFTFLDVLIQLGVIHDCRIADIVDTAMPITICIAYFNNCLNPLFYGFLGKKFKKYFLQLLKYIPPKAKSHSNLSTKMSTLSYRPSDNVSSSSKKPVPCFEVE
Kind of data set: Antagonist activity against AT1 receptor in Japanese White rabbit aortic strips assessed as reduction in angiotension-2-induced contractile response after 60 mins by Schild's plot analysis. The following applies: read-out: pA2 (converted).

For data set [2], the target named is T2, Type-1 angiotensin II receptor (Homo sapiens, UniProt P30556).
T2 sequence (P30556 whole entry): T1 sequence (P34976 whole entry) with M2I, A49V, V254I, V270I, H272R, K311R, S349T, V353A
Briefly: Displacement of [125I]Sar1Ile8-Ang2 from human AT1 receptor expressed in CHO-K1 cell membranes after 180 mins.

Data set [3] has as its system Rattus norvegicus. Briefly: Antihypertensive activity in spontaneously hypertensive rat assessed as decrease in mean blood pressure at 10 mg/kg, po within 24 hrs by tail-cuff plethysmography. Type of data set: functional, organism-based.
Data set [4] is described as follows: Toxicity in Kunming mouse at 1.3 g/kg, po assessed as mortality after 2 weeks. The following applies: in vivo, 1300 mg/kg. Type of data set: organism-based.
Data set [5] in a line: Toxicity in Kunming mouse at 2 g/kg, po assessed as mortality after 2 weeks. Type of data set: organism-based. The following applies: in vivo, 2000 mg/kg.
The nature of data set [6]: Toxicity in orally dosed Kunming mouse assessed as mortality after 2 weeks. Type of data set: organism-based. The following applies: in vivo, po.
Data set [7] can be described thus: Toxicity in Kunming mouse at 1.5 g/kg, po assessed as mortality after 2 weeks. Type of data set: organism-based. The following applies: in vivo, 1500 mg/kg.
A short description of data set [8]: Toxicity in Kunming mouse at 1.8 g/kg, po assessed as mortality after 2 weeks. Type of data set: organism-based. The following applies: in vivo, 1800 mg/kg.
The subject of data set [9] is Rattus norvegicus. Briefly: Antihypertensive activity in spontaneously hypertensive rat assessed as mean blood pressure at 30 mg/kg, po by tail-cuff plethysmography. Type of data set: functional, organism-based.

Take `CCCc1nc2c(C)cc(C(=O)N[C@H](COC)c3ccccc3)cc2n1Cc1ccc(-c2ccccc2C(=O)O)cc1`: the Kb in data set [1] was 3.63 nM. In data set [2], the IC50 (usually the concentration that inhibits the measured activity by half) was determined as 57.9 nM.

Regarding `CCCc1nc2c(C)cc(C(=O)NC[C@@H](O)c3ccccc3)cc2n1Cc1ccc(-c2ccccc2-c2nnn[nH]2)cc1`, in data set [2], the IC50 was determined as 106 nM. That is a sub-micromolar value.

Regarding `CCCc1nc2c(C)cc(C(=O)N[C@@H](CO)c3ccccc3)cc2n1Cc1ccc(-c2ccccc2C(=O)O)cc1`, the Kb in data set [1] is 7.41 nM. The same molecule returned an IC50 in [2] of 496 nM.

With `CSc1nc2c(C)cc(C(=O)NC[C@@H](C)c3ccccc3)cc2n1Cc1ccc(-c2ccccc2-c2nnn[nH]2)cc1`, the IC50 in data set [2] was 699 nM.

In data set [2], `CCOc1nc2c(C)cc(C(=O)NC[C@@H](C)c3ccccc3)cc2n1Cc1ccc(-c2ccccc2C(=O)O)cc1` displayed an IC50 of 57.4 nM. Compared with the last molecule, the IC50 is about 12-fold lower.

For the molecule `CCCSc1nc2c(C)cc(C(=O)NC[C@H](C)c3ccccc3)cc2n1Cc1ccc(-c2ccccc2-c2nnn[nH]2)cc1`, the result in data set [3] was inactive. Further, the 50% inhibitory concentration (IC50) in data set [2] was found to be 1.4 nM.

Consider `CCCc1nc2c(C)cc(C(=O)NCC(C)c3ccccc3)cc2n1Cc1ccc(-c2ccccc2-c2nnn[nH]2)cc1` (racemic), for which the Kb in data set [1] is 3.09 nM. This molecule also yielded an IC50 in data set [2] of 16.7 nM.

As for `CCCc1nc2c(C)cc(C(=O)N[C@@H](C)c3ccccc3)cc2n1Cc1ccc(-c2ccccc2C(=O)O)cc1`, the result in data set [3] was inactive. Besides, the 50% inhibitory concentration (IC50) in data set [2] was determined as 19.5 nM.

For the molecule `CSc1nc2c(C)cc(C(=O)NC[C@H](C)c3ccccc3)cc2n1Cc1ccc(-c2ccccc2-c2nnn[nH]2)cc1`, in [2], the IC50 is 671 nM.

Regarding `CCCc1nc2c(C)cc(C(=O)N[C@H](COC)c3ccccc3)cc2n1Cc1ccc(-c2ccccc2-c2nnn[nH]2)cc1`, the Kb in [1] is 3.16 nM. Also, in data set [2], the IC50 stood at 157 nM.

`CCCc1nc2c(C)cc(C(=O)NC[C@@H](O)c3ccccc3)cc2n1Cc1ccc(-c2ccccc2C(=O)O)cc1`: the IC50 in [2] amounted to 104 nM. This counts as sub-micromolar.

In turn, `CCOc1nc2c(C)cc(C(=O)NC[C@H](C)c3ccccc3)cc2n1Cc1ccc(-c2ccccc2-c2nnn[nH]2)cc1` had an IC50 in data set [2] of 3.5 nM.

In the case of `CCCc1nc2c(C)cc(C(=O)NC[C@@H](C)c3ccccc3)cc2n1Cc1ccc(-c2ccccc2-c2nnn[nH]2)cc1`, in [1], the Kb is 26.3 nM. In [2], this molecule registered an IC50 of 5 nM.

On to `CCCc1nc2c(C)cc(C(=O)N[C@H](C)c3ccccc3)cc2n1Cc1ccc(-c2ccccc2C(=O)O)cc1`, for which the IC50 in data set [2] is 90.5 nM.

Take `CCSc1nc2c(C)cc(C(=O)NC[C@H](C)c3ccccc3)cc2n1Cc1ccc(-c2ccccc2-c2nnn[nH]2)cc1`: in data set [2], the IC50 came out at 503 nM.

As for `CCCSc1nc2c(C)cc(C(=O)NC[C@@H](C)c3ccccc3)cc2n1Cc1ccc(-c2ccccc2-c2nnn[nH]2)cc1`, the result in [3] was inactive. For the same molecule, the IC50 in data set [2] is 2.7 nM.

In the case of `CCCc1nc2c(C)cc(C(=S)NC[C@@H](C)c3ccccc3)cc2n1Cc1ccc(-c2ccccc2-c2nnn[nH]2)cc1`, the IC50 in [2] stood at 343 nM.

Take `CCSc1nc2c(C)cc(C(=O)NC[C@@H](C)c3ccccc3)cc2n1Cc1ccc(-c2ccccc2-c2nnn[nH]2)cc1`: the IC50 in data set [2] worked out at 622 nM. This IC50 lies about 1.8-fold higher than the previous one.

As to `CCCCc1nc(Cl)c(CO)n1Cc1ccc(-c2ccccc2-c2nn[nH]n2)cc1` [LOSARTAN], the mortality (in general, the percentage killed) at 336 h in data set [4] is 10%; in [5], 90%; in [7] it was 30%; in data set [8] it was 80%. Also, the LD50 – broadly, the dose at which mortality reaches 50% – at 336 h in data set [6] worked out at 1570 mg/kg.

`CCSc1nc2c(C)cc(C(=O)NC[C@H](C)c3ccccc3)cc2n1Cc1ccc(-c2ccccc2C(=O)O)cc1`: the IC50 in data set [2] turned out to be 487 nM.

Molecule `CCCSc1nc2c(C)cc(C(=O)NC[C@@H](C)c3ccccc3)cc2n1Cc1ccc(-c2ccccc2C(=O)O)cc1` showed an IC50 in [2] of 87.2 nM.

`CCCSc1nc2c(C)cc(C(=O)NC[C@H](C)c3ccccc3)cc2n1Cc1ccc(-c2ccccc2C(=O)O)cc1` registered an IC50 in data set [2] of 61.2 nM. The IC50 values of the last two molecules are within 1.5-fold of each other.

As for `CCCc1nc2c(C)cc(C(=O)NC[C@@H](C)c3ccccc3)cc2n1Cc1ccc(-c2ccccc2C(=O)O)cc1`, the Kb in data set [1] was 1.86 nM. Also, the IC50 in data set [2] was 40.4 nM.

Turning to `CCSc1nc2c(C)cc(C(=O)NC[C@@H](C)c3ccccc3)cc2n1Cc1ccc(-c2ccccc2C(=O)O)cc1`, the concentration for half-maximal inhibition (IC50) in data set [2] amounted to 788 nM.

For the molecule `CCCc1nc2c(C)cc(C(=O)N[C@H](CO)c3ccccc3)cc2n1Cc1ccc(-c2ccccc2C(=O)O)cc1`, the Kb in data set [1] is 3.98 nM. In data set [2], this molecule displayed an IC50 of 214 nM.

For `CCCc1nc2c(C)cc(C(=O)N[C@@H](CO)c3ccccc3)cc2n1Cc1ccc(-c2ccccc2-c2nnn[nH]2)cc1`, in data set [1], the Kb was 15.8 nM. In [2], this molecule had an IC50 of 293 nM.

As to `CCCc1nc2c(C)cc(C(=S)NC[C@H](C)c3ccccc3)cc2n1Cc1ccc(-c2ccccc2C(=O)O)cc1`, the IC50 in data set [2] was 1120 nM.

`CCCc1nc2c(C)cc(C(=S)NC[C@@H](C)c3ccccc3)cc2n1Cc1ccc(-c2ccccc2C(=O)O)cc1`: the IC50 in [2] was 738 nM.

For the molecule `CCCCc1nc(Cl)c(CO)n1Cc1ccc(-c2ccccc2-c2nnn[nH]2)cc1`, the result in data set [9] was Active.

`CCCc1nc2c(C)cc(C(=S)NC[C@H](C)c3ccccc3)cc2n1Cc1ccc(-c2ccccc2-c2nnn[nH]2)cc1`: the IC50 in [2] was found to be 366 nM.

Molecule `CSc1nc2c(C)cc(C(=O)NC[C@H](C)c3ccccc3)cc2n1Cc1ccc(-c2ccccc2C(=O)O)cc1` came in with an IC50 in [2] of 609 nM.

In turn, `CCCc1nc2c(C)cc(C(=O)NC[C@H](O)c3ccccc3)cc2n1Cc1ccc(-c2ccccc2C(=O)O)cc1` returned an IC50 in data set [2] of 93.9 nM.

With `CCOc1nc2c(C)cc(C(=O)NC[C@@H](C)c3ccccc3)cc2n1Cc1ccc(-c2ccccc2-c2nnn[nH]2)cc1`, the IC50 in [2] turned out to be 6.3 nM.

With `CCCc1nc2c(C)cc(C(=O)NCCc3ccccc3)cc2n1Cc1ccc(-c2ccccc2C(=O)O)cc1`, the Kb in data set [1] is 8.13 nM. In data set [2], this molecule had an IC50 of 23.1 nM.

In the case of `CCCc1nc2c(C)cc(C(=O)N[C@H](CO)c3ccccc3)cc2n1Cc1ccc(-c2ccccc2-c2nnn[nH]2)cc1`, the Kb in data set [1] is 7.76 nM. In addition, the IC50 in data set [2] came to 129 nM.

In data set [2], `CCOc1nc2c(C)cc(C(=O)NC[C@H](C)c3ccccc3)cc2n1Cc1ccc(-c2ccccc2C(=O)O)cc1` came in with an IC50 of 7.3 nM.

`CCCc1nc2c(C)cc(C(=O)NC[C@H](O)c3ccccc3)cc2n1Cc1ccc(-c2ccccc2-c2nnn[nH]2)cc1` yielded an IC50 in [2] of 161 nM. Compared with the last molecule, the IC50 is about 22-fold higher.

In data set [2], `CSc1nc2c(C)cc(C(=O)NC[C@@H](C)c3ccccc3)cc2n1Cc1ccc(-c2ccccc2C(=O)O)cc1` came in with an IC50 of 1370 nM. This IC50 is about 8.5-fold higher than that of the molecule before.

Turning to `CCCc1nc2c(C)cc(C(=O)N[C@@H](COC)c3ccccc3)cc2n1Cc1ccc(-c2ccccc2-c2nnn[nH]2)cc1`, in data set [1], the Kb was 6.92 nM. In data set [2], this molecule came in with an IC50 of 38.9 nM.

For `CCCc1nc2c(C)cc(C(=O)NC[C@H](C)c3ccccc3)cc2n1Cc1ccc(-c2ccccc2C(=O)O)cc1`, the Kb in [1] was 5.62 nM. In [2], this molecule gave an IC50 of 23 nM.

As for `CCCc1nc2c(C)cc(C(=O)N[C@@H](COC)c3ccccc3)cc2n1Cc1ccc(-c2ccccc2C(=O)O)cc1`, the Kb in data set [1] was 3.16 nM. The IC50 in data set [2] was found to be 70 nM.
